Data taken from patent publication US9931316B2 (priority 2015, dated 2018).
In brackets after ≈: the same amount, converted by molar mass. Like-named read-outs stand apart in the source and are kept apart here.

Tests used:
HSV-1 = assay: microbe, parasite or virus in culture; format: cell-based, Herpes Simplex; details: Human alphaherpesvirus 1, HFF, read-out: Cntrl EC50
[1] = test system: Mycobacterium tuberculosis; details: Hwang et al., J. Nat. Prod. 76: 1916-1922 (2013); cited from earlier work
[2] = test system: laccase activity of Trametes sp. 1-62; details: Terron et al. 2004; cited from earlier work
Ebola = format: cell-based, Ebola virus; details: SI50 = CC50/EC50
[3] = within the human body; cited from earlier work
Human papillomavirus 11 = format: cell-based, human papillomavirus (HPV)
Polio = format: cell-based, poliovirus; details: Polio primary, SI50 = CC50/EC50
Flu B Shanghai/361/02 = assay: Influenza B antiviral assay in MDCK cells (BioShield, NIH contract labs); format: cell-based; details: for EC50: Influenza B virus, read-out: Cntrl EC50; for EC50 / Cntrl SI: Ribavirin control, Flu B
Source text: Following the Project BioShield Act of 2004, Fungi Perfecti, LLC submitted over 200 hot water fruitbody and aqueous ethanolic extracts of the in vitro grown mycelia of mushroom species and strains within to the BioShield BioDefense Program administered by the U.S. Army Medical Research Institute of Infectious Diseases ([…]) and the National Institutes of Health (NIH). Submitted samples were screened for antiviral activity coordinated through the Southern Research Institute (SRI). From the more than 200 samples the inventor provided to BioShield, 2,392 antiviral assays were performed on behalf of the inventor; 1,042 of which were influenza tests.
The protocols for determining antiviral activity are fully described by the National Institutes of Allergy and Infectious Diseases (NIAID) by Greenstone et al., NIAID resources for developing new therapies for severe viral infections, Antiviral Res., Volume 78, Issue 1, April 2008, Pages 51-59, hereby incorporated by reference in its entirety. The influenza bioassays were conducted according to Sidwell, R W and Smee, D F, In vitro and in vivo assay systems for study of influenza virus inhibitors, Antiviral Res., October 2000, 48(1):1-16., hereby incorporated by reference in its entirety.

in vitro = details: dog
[4] = test system: Flu A (H3N2) Wisconsin/67/2005; assay: microbe, parasite or virus in culture; format: cell-based, Influenza A; details: for Cntrl SI: Ribavirin control, Flu A (H3N2)
[5] = test system: Flu A (H5N1) Vietnam/1203/2004H; assay: microbe, parasite or virus in culture; format: cell-based, Influenza A
[6] = oral ingestion; cited from earlier work
Norovirus = format: cell-based, norovirus (Norwalk); parameters: unit not given beside the values

Nc1nc2c(ncn2COCCO)c(=O)[nH]1 [acyclovir]
EC50 (HSV-1): 0.3 µg/mL (≈ 1.33 µM)

CCOC(=O)c1c(-c2ccccc2)c2ccc(Cl)cc2oc1=O [Ethyl 7-chloro-2-oxo-4-phenyl-2H-chromen-3-carboxylate]
activity against Mycobacterium tuberculosis [1]: active

O=C(O)/C=C/c1ccc(O)cc1 [p-coumaric acid]
increase in laccase activity [2]: 273 fold

CC(=O)/C=C(O)\C=C\c1ccc(O)c(O)c1 [Hispolon]
SI50 (Ebola): > 5.3
activity against Mycobacterium tuberculosis [1]: active

NC(=O)c1nc(F)c[nH]c1=O [favipiravir]
SI50 (Ebola): > 10

COc1cc(C=O)ccc1O [vanillin]
share of vanillin metabolized into vanillic acid [3]: up to 95%

C[C@@H]1O[C@@H](OC[C@H]2O[C@@H](Oc3c(-c4ccc(O)c(O)c4)oc4cc(O)cc(O)c4c3=O)[C@H](O)[C@@H](O)[C@@H]2O)[C@H](O)[C@H](O)[C@H]1O.O [Rutin hydrate]
SI90 (Human papillomavirus 11): Human papillomavirus 11 primary: SI50 > 109 (Control cidofovir SI50 = 12), SI90 = 5 (Control cidofovir SI90 = 1)

O=c1cc(-c2ccccc2)oc2cc(O)cc(O)c12 [Chrysin]
SI50 (Polio): Polio primary: SI50 > 15 (Control pirodavir SI50 > 22)
SI50 (Polio; listed as chrysin): > 15

NC(=O)c1ncn([C@@H]2O[C@H](CO)[C@@H](O)[C@H]2O)n1 [Ribavirin]
EC50 (Flu B Shanghai/361/02; MDCK, Neutral Red): 7.1 µg/mL (≈ 29.1 µM)
EC50 (Flu B Shanghai/361/02; MDCK, Visual-CONF): 1.7 µg/mL (≈ 6.96 µM)
EC50 (Flu B Shanghai/361/02; MDCK, Visual): 1.7 µg/mL (≈ 6.96 µM)
EC90 (Flu B Shanghai/361/02; MDCK, read-out: Cntrl EC90): 37.7 µg/mL (≈ 154 µM)
Cntrl SI (Flu B Shanghai/361/02; Neutral Red): >45
Cntrl SI (Flu B Shanghai/361/02; Visual): >190
Cntrl SI (Flu B Shanghai/361/02; Visual-CONF): >190
IC50 (in vitro): > 320 µg/mL
EC50 ([4]; Influenza A virus, H3N2, MDCK, read-out: Cntrl EC50): 2 µg/mL (≈ 8.19 µM)
Cntrl SI ([4]; Neutral Red): >160
Cntrl SI ([4]; Visual): >170
EC50 ([5]; Influenza A virus, H5N1, MDCK, read-out: Cntrl EC50, Ribavirin control, Neutral Red): 12 µg/mL (≈ 49.1 µM)
Cntrl SI ([5]; Ribavirin control, Neutral Red): >27

COc1cc(C(=O)O)ccc1O [Vanillic acid]
time remaining in the blood stream post-digestion [6]: more than 11 hours
SI50 (Norovirus): 1
SI90 (Norovirus): 1

COc1ccccc1O [guaiacol]
increase in laccase activity [2]: 73 fold
